Reference: patent US6844353B2, “Fungicidal properties of sampangine and its analogs to agriculturally important fungal plant pathogens” (The United States of America as represented by the …, priority 2003, dated 2005)
Where two headings read alike, the source gives them in different places.

How the values were obtained:
Experiment in all cases: 96-well microtiter plate assay, fungal growth inhibition
[1] = tested on: F. oxysporum; type: cell-based, Fusarium oxysporum; settings: for Percent inhibition−Percent Stimulation±SEM: F. oxysporum; for inhibition at 0.3 µM / inhibition at 3 µM / inhibition at 30 µM: Fusarium oxysporum, read-out: Percent inhibition−Percent Stimulation±SEM
Text: (§1) Pathogen production. Isolates of Colletotrichum acutatum Simmonds, Colletotrichum fragariae Brooks, and Colletotrichum gloeosporioides (Penz.) Penz. & Sacc. in Penz. were obtained from B. J. Smith, USDA, ARS, Small Fruit Research Station, Poplarville, Miss. Colletotrichum fragariae (isolate CF63), C. acutatum (isolate CAGoff), and C. gloeosporioides (isolate CG162) were used for all pathogen and bioautography studies. Isolate CF63 is one of the most virulent isolates at infecting strawberry plants and inducing both crown and fruit rot (Smith and Black, 1990). CF63, CAGoff, and CG162 were used as standard test isolates because of our extensive knowledge of these isolates and their known fungicide sensitivity profiles in both bioautography and microtiter formats. The three Colletotrichum species were isolated from strawberry (Fragaria x ananassa Duchesne). Botrytis cinerea Pers.: Fr, was isolated from commercial grape (Vitis vinifera L.) and Fusarium oxysporum Schlechtend: Fr from orchid (Cynoches sp.). Phomopsis viticola (Sacc.) and P. obscurans (Ellis & Everh.) Sutton were from Mike A. Ellis, Ohio State University, Wooster, Ohio. Fungi were grown on potato-dextrose agar (PDA, Difco, Detroit, Mich.) in 9 cm petri dishes and incubated in a growth chamber at 24±2° C. and under cool-white fluorescent lights ([…]·m^−2·sec^−1 light) with 12 hour photoperiod.
(§2) Inoculum preparation. Conidia were harvested from 7-10 day-old cultures by flooding plates with 5 mL of sterile distilled water and dislodging conidia by softly brushing the colonies with an L-shaped glass rod. Conidial suspensions were filtered through sterile miracloth (Calbiochem-Novabiochem Corp., La Jolla, Calif.) to remove mycelia. Conidia concentrations were determined photometrically, from a standard curve based on the percent of transmittance (% T) at 625 nm and suspensions were then adjusted with sterile distilled water to a concentration of 1.0×10^6 conidia/mL.
(§3) Microtiter assay. A standardized 96-well microtiter plate assay developed for discovery of natural product fungicidal agents was used to evaluate naturally occurring antifungal agents from Macaranga monanara. A 96-well microtiter assay was used to determine sensitivity of B. cinerea, C. acutatum, C. fragariae, C. gloeosporioides, F. oxysporum, Phomopsis viticola, and P. obscurans to the various antifungal agents in comparison with known fungicidal standards. Vinclozolin, captan, and thiabendazole, which represent three different modes of action, were used as standards in this experiment. Each fungus was challenged in a dose-response format using test compounds where the final treatment concentrations were 0.3, 3.0 and 30.0 μM. Microtiter plates (Nunc MicroWell, untreated; Roskilde, Denmark) were covered with a plastic lid and incubated in a growth chamber as described previously for fungal growth. Growth was then evaluated by measuring absorbance of each well at 620 nm using a microplate photometer (Packard Spectra Count, Packard Instrument Co., Downers Grove, Ill.). Microtiter plates (Nunc MicroWell, untreated; Roskilde, Denmark) were covered with a plastic lid and incubated in a growth chamber at 24±1° C. and 12 hour photoperiod under 60±5 μmol light. Growth was then evaluated by measuring absorbance of each well at 620 nm using a microplate photometer (Packard Spectra Count, Packard Instrument Co., Downers Grove, Ill.).
(§4) Microbioassy Experimental Design. Chemical sensitivity each of B. cinerea, C. acutatum, C. fragariae, C. gloeosporiodes, F. oxysporum, Phomopsis viticola, and P. obscurans was evaluated using 96-well plate microbioassay format. Each chemical was evaluated in duplicate at each dose (0.3, 3.0 and 30.0 μM). […]

[2] = tested on: C. acutatum; type: cell-based, Colletotrichum acutatum; settings: for Percent inhibition−Percent Stimulation±SEM: C. acutatum; for inhibition at 0.3 µM / inhibition at 3 µM / inhibition at 30 µM: Colletotrichum acutatum, read-out: Percent inhibition−Percent Stimulation±SEM
Text: as §1, §2, §3, §4

[3] = tested on: B. cinerea; type: cell-based, Botrytis cinerea; settings: for Percent inhibition−Percent Stimulation±SEM: B. cinerea; for inhibition at 0.3 µM / inhibition at 3 µM / inhibition at 30 µM: Botrytis cinerea, read-out: Percent inhibition−Percent Stimulation±SEM
Text: as §1, §2, §3, §4

[4] = tested on: C. fragariae; type: cell-based, Colletotrichum fragariae; settings: for Percent inhibition−Percent Stimulation±SEM: C. fragariae; for inhibition at 0.3 µM / inhibition at 3 µM / inhibition at 30 µM: Colletotrichum fragariae, read-out: Percent inhibition−Percent Stimulation±SEM
Text: as §1, §2, §3, §4

[5] = tested on: C. gloeosporioides; type: cell-based, Colletotrichum gloeosporioides; settings: for Percent inhibition−Percent Stimulation±SEM: C. gloeosporioides; for inhibition at 0.3 µM / inhibition at 3 µM / inhibition at 30 µM: Colletotrichum gloeosporioides, read-out: Percent inhibition−Percent Stimulation±SEM
Text: as §1, §2, §3, §4

In the case of O=C1c2ccccc2-c2nccc3c2c1nc1ccccc13 [Benzo[4,5]sampangine, benzo[4,5]sampangine], the “Percent inhibition−Percent Stimulation±SEM” value ([1]; 0.3 μM, 48 hrs) is reported as −48.2 ± 4.4%, the “Percent inhibition−Percent Stimulation±SEM” value ([1]; 0.3 μM, 72 hrs) is reported as −17.1 ± 2.0% and the “Percent inhibition−Percent Stimulation±SEM” value ([1]; 3.0 μM, 48 hrs) is reported as −77.7 ± 5.7%. For the same molecule, the “Percent inhibition−Percent Stimulation±SEM” value ([1]; 3.0 μM, 72 hrs) was −27.2 ± 6.2%, the “Percent inhibition−Percent Stimulation±SEM” value ([1]; 30 μM, 48 hrs) was −57.9 ± 3.2% and the “Percent inhibition−Percent Stimulation±SEM” value ([1]; 30 μM, 72 hrs) was −27.2 ± 1.9%. For the same molecule, the “Percent inhibition−Percent Stimulation±SEM” value ([2]; 0.3 μM, 48 hrs) was −30.5 ± 10.2%, the “Percent inhibition−Percent Stimulation±SEM” value ([2]; 0.3 μM, 72 hrs) was −25.9 ± 8.0% and the “Percent inhibition−Percent Stimulation±SEM” value ([2]; 3.0 μM, 48 hrs) was −74.2 ± 6.3%. For the same molecule, the “Percent inhibition−Percent Stimulation±SEM” value ([2]; 3.0 μM, 72 hrs) was −46.2 ± 5.2%, the “Percent inhibition−Percent Stimulation±SEM” value ([2]; 30 μM, 48 hrs) was −57.0 ± 10.0% and the “Percent inhibition−Percent Stimulation±SEM” value ([2]; 30 μM, 72 hrs) was −38.9 ± 5.2%. The “Percent inhibition−Percent Stimulation±SEM” value ([3]; 0.3 μM, 48 hrs) was −70.2 ± 5.8%, the “Percent inhibition−Percent Stimulation±SEM” value ([3]; 0.3 μM, 72 hrs) was −55.2 ± 8.1% and the “Percent inhibition−Percent Stimulation±SEM” value ([3]; 3.0 μM, 48 hrs) was −78.0 ± 3.6%. The “Percent inhibition−Percent Stimulation±SEM” value ([3]; 3.0 μM, 72 hrs) was −46.7 ± 10.2%, the “Percent inhibition−Percent Stimulation±SEM” value ([3]; 30 μM, 48 hrs) was −99.2 ± 19.4% and the “Percent inhibition−Percent Stimulation±SEM” value ([3]; 30 μM, 72 hrs) was −22.8 ± 14.7%. For the same molecule, the “Percent inhibition−Percent Stimulation±SEM” value ([4]; 0.3 μM, 48 hrs) was −38.4 ± 6.1%, the “Percent inhibition−Percent Stimulation±SEM” value ([4]; 0.3 μM, 72 hrs) was −19.8 ± 7.7% and the “Percent inhibition−Percent Stimulation±SEM” value ([4]; 3.0 μM, 48 hrs) was −72.4 ± 8.5%. The “Percent inhibition−Percent Stimulation±SEM” value ([4]; 3.0 μM, 72 hrs) was −54.7 ± 11.2%, the “Percent inhibition−Percent Stimulation±SEM” value ([4]; 30 μM, 48 hrs) was −52.9 ± 6.5% and the “Percent inhibition−Percent Stimulation±SEM” value ([4]; 30 μM, 72 hrs) was −29.4 ± 6.8%. The “Percent inhibition−Percent Stimulation±SEM” value ([5]; 0.3 μM, 48 hrs) was −100.0 ± 1.0%, the “Percent inhibition−Percent Stimulation±SEM” value ([5]; 0.3 μM, 72 hrs) was −100.0 ± 0.3% and the “Percent inhibition−Percent Stimulation±SEM” value ([5]; 3.0 μM, 48 hrs) was −98.6 ± 1.1%. The “Percent inhibition−Percent Stimulation±SEM” value ([5]; 3.0 μM, 72 hrs) was −99.7 ± 0.4%, the “Percent inhibition−Percent Stimulation±SEM” value ([5]; 30 μM, 48 hrs) was −100.0 ± 1.8% and the “Percent inhibition−Percent Stimulation±SEM” value ([5]; 30 μM, 72 hrs) was −100.0 ± 0.9%.
Work on O=C1C2CC=CCC2C(=O)N1SC(Cl)(Cl)Cl (stereo not drawn) [Captan] yielded an inhibition at 0.3 µM ([1]; 48 h) of 2.8 ± 4.7%, an inhibition at 3 µM ([1]; 48 h) of 77.2 ± 7.2% and an inhibition at 30 µM ([1]; 48 h) of 100 ± 0.4%. It also gave an inhibition at 0.3 µM ([1]; 72 h) of -4.7 ± 2.1%, an inhibition at 3 µM ([1]; 72 h) of 24.1 ± 6.5% and an inhibition at 30 µM ([1]; 72 h) of 99.8 ± 0.2%. The inhibition at 0.3 µM ([2]; 48 h) was -2.7 ± 2.4%, the inhibition at 3 µM ([2]; 48 h) was 98.8 ± 0.4% and the inhibition at 30 µM ([2]; 48 h) was 99.5 ± 0.3%. It also gave an inhibition at 0.3 µM ([2]; 72 h) of -9.5 ± 1.5%, an inhibition at 3 µM ([2]; 72 h) of 94.8 ± 0.2% and an inhibition at 30 µM ([2]; 72 h) of 99.6 ± 0.2%. The inhibition at 0.3 µM ([3]; 48 h) was -55.9 ± 24.7%, the inhibition at 3 µM ([3]; 48 h) was 38.4 ± 23.5% and the inhibition at 30 µM ([3]; 48 h) was 58 ± 23.2%. For the same molecule, the inhibition at 0.3 µM ([3]; 72 h) was 40.7 ± 16.3%, the inhibition at 3 µM ([3]; 72 h) was 54.6 ± 22.9% and the inhibition at 30 µM ([3]; 72 h) was 54 ± 17.9%. It also gave an inhibition at 0.3 µM ([4]; 48 h) of -20.5 ± 9.5%, an inhibition at 3 µM ([4]; 48 h) of 98.1 ± 0.6% and an inhibition at 30 µM ([4]; 48 h) of 98.8 ± 0.8%. It also gave an inhibition at 0.3 µM ([4]; 72 h) of -14.9 ± 2.2%, an inhibition at 3 µM ([4]; 72 h) of 97.8 ± 1.6% and an inhibition at 30 µM ([4]; 72 h) of 99.5 ± 0.3%. The inhibition at 0.3 µM ([5]; 48 h) was -4.4 ± 4.4%, the inhibition at 3 µM ([5]; 48 h) was 96.3 ± 2.1% and the inhibition at 30 µM ([5]; 48 h) was 99.7 ± 0.6%. For the same molecule, the inhibition at 0.3 µM ([5]; 72 h) was -15.3 ± 2.1%, the inhibition at 3 µM ([5]; 72 h) was 97.9 ± 0.7% and the inhibition at 30 µM ([5]; 72 h) was 100 ± 0.3%.
